{
  "source": "patent US12391697B2",
  "about": "“Condensed bi-heterocycles as inhibiting agents for Bruton's tyrosine kinase” (BIOGEN MA INC., priority 2019, dated 2025)",
  "note": "Structures can show the parent of a compound that is named as a salt.",
  "data": [
    {"biological_target": "BTK (Homo sapiens (Human), UniProt Q06187)", "sequence (Q06187 whole entry)": "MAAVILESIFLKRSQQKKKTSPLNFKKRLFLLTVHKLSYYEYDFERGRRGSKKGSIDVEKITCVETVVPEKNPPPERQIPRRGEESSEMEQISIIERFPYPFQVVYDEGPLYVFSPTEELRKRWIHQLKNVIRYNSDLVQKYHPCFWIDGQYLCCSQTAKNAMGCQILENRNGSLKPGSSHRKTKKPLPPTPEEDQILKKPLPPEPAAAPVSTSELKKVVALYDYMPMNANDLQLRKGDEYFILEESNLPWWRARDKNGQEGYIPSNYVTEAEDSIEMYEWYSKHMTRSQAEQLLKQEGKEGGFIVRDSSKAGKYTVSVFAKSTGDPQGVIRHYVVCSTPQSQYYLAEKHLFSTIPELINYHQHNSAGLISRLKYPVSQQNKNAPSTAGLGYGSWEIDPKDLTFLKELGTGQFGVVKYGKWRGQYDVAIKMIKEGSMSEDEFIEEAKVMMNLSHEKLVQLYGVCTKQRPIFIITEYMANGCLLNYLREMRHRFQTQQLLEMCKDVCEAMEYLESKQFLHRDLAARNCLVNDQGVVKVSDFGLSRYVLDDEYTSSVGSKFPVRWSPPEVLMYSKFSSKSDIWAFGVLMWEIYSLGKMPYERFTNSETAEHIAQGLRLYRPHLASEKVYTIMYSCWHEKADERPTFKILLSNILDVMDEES", "assay": "In Vitro BTK Kinase Assay: Btk-PolyGAT-LS Assay", "assay_type": "biochemical", "conditions": "active BTK enzyme 0.25 nM, ATP 10 μM, polyGAT 100 nM, 30 minutes", "description": "In Vitro BTK Kinase Assay: Btk-PolyGAT-LS Assay\nThe purpose of the BTK in vitro assay is to determine compound potency against BTK through the measurement of IC50. […] The BTK kinase reaction was done in a black 96 well plate (costar 3694). For a typical assay, a […] aliquot of a ATP/peptide master mix (final concentration; ATP 10 μM, polyGAT 100 nM) in kinase buffer (10 mM Tris-HCl pH 7.5, 10 mM MgCl2, 200 μM […], 5 mM DTT, 0.01% Triton X-100, and 0.2 mg/ml casein) is added to each well. Next, […] of a 4-fold, 40× compound titration in 100% DMSO solvent is added, followed by adding 15 uL of BTK enzyme mix in 1× kinase buffer (with a final concentration of 0.25 nM). The assay is incubated for 30 minutes before being stopped with […] of a 50 mM EDTA solution. Aliquots (5 uL) of the kinase reaction are transferred to a low volume white 384 well plate (Corning 3674), and […] of a 2× detection buffer (Invitrogen PV3574, with 4 nM Tb-PY20 antibody, Invitrogen PV3552) is added. The plate is covered and incubated for 45 minutes at room temperature. Time resolved fluorescence (TRF) on Molecular Devices M5 (332 nm excitation; 488 nm emission; 518 nm fluorescein emission) is measured.", "units": {"IC50": "nM"}, "values": [
      {"smiles": "Cc1cc(-c2ncnn3cc(C#N)cc23)ccc1CNC(=O)c1noc(C(C)(C)C)n1", "note": "[Example 102]", "IC50": "1 to 10"},
      {"smiles": "CC(C)(C)n1cc(C(=O)NCc2ccc(-c3ncnn4cc(-c5cnn(CC(F)F)c5)cc34)cc2C(F)F)cn1", "note": "[Example 209]", "IC50": "≤ 1"},
      {"smiles": "CC(C)(C)c1noc(C(=O)NCc2ccc(-c3ncnn4cc(N5CCOCC5)cc34)cc2C2CC2)n1", "note": "[Example 206]", "IC50": "≤ 1"},
      {"smiles": "Cn1cc(-c2cc3c(-c4ccc(CNC(=O)c5cn(C(C)(C)C)nn5)c(C(F)F)c4)ncnn3c2)cn1", "note": "[Example 64, 1-(tert-butyl)-N-(2-(difluoromethyl)-4-(6-(1-methyl-1H-pyrazol-4-yl)pyrrolo[2,1-f][1,2,4]triazin-4-yl)benzyl)-1H-1,2,3-triazole-4-carboxamide hydrochloride]", "IC50": "≤ 1"},
      {"smiles": "CC(C)(C)c1noc(C(=O)NCc2ccc(-c3ncnn4cccc34)c(F)c2C2CC2)n1", "note": "[Example 153]", "IC50": "1 to 10"},
      {"smiles": "Cc1cc(-c2ncnn3cccc23)ccc1CNC(=O)c1ccn(C(C)(C)C)n1", "note": "[Example 182]", "IC50": "> 10"},
      {"smiles": "Cc1cc(-c2ncnn3cc(-c4cnn(C)c4)cc23)ccc1CNC(=O)c1cnn(C(C)(C)C)c1", "note": "[Example 167]", "IC50": "≤ 1"},
      {"smiles": "Cc1cc(-c2ncnn3cc(C4CCN(C)C4)cc23)ccc1CNC(=O)c1noc(C(C)(C)C)n1", "note": "(stereo not drawn) [Example 149]", "IC50": "1 to 10"},
      {"smiles": "Cn1cc(-c2cc3c(-c4ccc(CNC(=O)c5noc(C(C)(C)C)n5)c(CC(F)F)c4)ncnn3c2)cn1", "note": "[Example 231]", "IC50": "≤ 1"},
      {"smiles": "Cc1cc(-c2ncnn3cc(N4C[C@@H]5C[C@H]4CN5C)cc23)ccc1CNC(=O)c1noc(C(C)(C)C)n1", "note": "[Example 93]", "IC50": "> 10"},
      {"smiles": "COc1c(CNC(=O)c2noc(C(C)(C)C)n2)ccc(-c2ncnn3cc(-c4cnn(C)c4)cc23)c1F", "note": "[Example 235]", "IC50": "≤ 1"},
      {"smiles": "Cc1cc(-c2ncnn3cc(N4CCn5ccnc5C4)cc23)ccc1CNC(=O)c1nc(C(C)(C)C)no1", "note": "[Example 121]", "IC50": "≤ 1"},
      {"smiles": "Cc1cc(-c2ncnn3cc(-c4cncnc4)cc23)ccc1CNC(=O)c1noc(C(C)(C)C)n1", "note": "[Example 226]", "IC50": "≤ 1"},
      {"smiles": "Cc1cc(-c2ncnn3cc(-c4ncccn4)cc23)ccc1CNC(=O)c1noc(C(C)(C)C)n1", "note": "[Example 68, 5-(tert-butyl)-N-(2-methyl-4-(6-(pyrimidin-2-yl)pyrrolo[2,1-f][1,2,4]triazin-4-yl)benzyl)-1,2,4-oxadiazole-3-carboxamide hydrochloride]", "IC50": "≤ 1"},
      {"smiles": "COC1CN(C(=O)c2cc3c(-c4ccc(CNC(=O)c5noc(C(C)(C)C)n5)c(C)c4)ncnn3c2)C1", "note": "[Example 217]", "IC50": "≤ 1"},
      {"smiles": "COc1c(CNC(=O)c2nc(C(C)(C)C)no2)ccc(-c2ncnn3cc(N4CCOCC4)cc23)c1F", "note": "[Example 203]", "IC50": "≤ 1"},
      {"smiles": "Cc1cc(-c2ncnn3cc(N4CCN(C)C[C@H]4C)cc23)ccc1CNC(=O)c1noc(C(C)(C)C)n1", "note": "[Example 70, (R)-5-(tert-butyl)-N-(4-(6-(2,4-dimethylpiperazin-1-yl)pyrrolo[2,1-f][1,2,4]triazin-4-yl)-2-methylbenzyl)-1,2,4-oxadiazole-3-carboxamide trifluoroacetate]", "IC50": "1 to 10"},
      {"smiles": "Cc1cc(-c2ncnn3cc(-c4cnn(C)c4C)cc23)ccc1CNC(=O)c1cnc(C(C)(C)C)o1", "note": "[Example 131]", "IC50": "1 to 10"},
      {"smiles": "Cc1cc(-c2ncnn3cccc23)ccc1CNC(=O)c1cn(C(C)(C)C)nn1", "note": "[Example 184]", "IC50": "> 10"},
      {"smiles": "Cc1cc(-c2ncnn3cc(-c4cn(C)nn4)cc23)ccc1CNC(=O)c1noc(C(C)(C)C)n1", "note": "[Example 106]", "IC50": "≤ 1"},
      {"smiles": "COc1cc(-c2cc3c(-c4ccc(CNC(=O)c5noc(C(C)(C)C)n5)c(C)c4)ncnn3c2)ccn1", "note": "[Example 228]", "IC50": "≤ 1"},
      {"smiles": "Cc1cc(-c2ncnn3cc(N4CCOCC4C)cc23)ccc1CNC(=O)c1noc(C(C)(C)C)n1", "note": "(stereo not drawn) [Example 229]", "IC50": "1 to 10"},
      {"smiles": "Cc1cc(-c2ncnn3cc(-c4cnn(C(F)F)c4)cc23)ccc1CNC(=O)c1noc(C(C)(C)C)n1", "note": "[Example 107]", "IC50": "≤ 1"},
      {"smiles": "CC(C)(C)c1nnc(C(=O)NCc2ccc(-c3ncnn4cc(N5CCOCC5)cc34)c(F)c2C2CC2)o1", "note": "[Example 163]", "IC50": "1 to 10"},
      {"smiles": "Cc1cc(-c2ncnn3cc(N4CCO[C@H](C)C4)cc23)ccc1CNC(=O)c1nc(C(C)(C)C)no1", "note": "(single isomer, unassigned) [Example 137]", "IC50": "≤ 1"},
      {"smiles": "Cc1cc(-c2ncnn3cc(C(=O)N4CCOCC4)cc23)ccc1CNC(=O)c1noc(C(C)(C)C)n1", "note": "[Example 215]", "IC50": "> 10"},
      {"smiles": "Cc1cc(-c2ncnn3cc(N4CCOC(C(C)C)C4)cc23)ccc1CNC(=O)c1nc(C(C)(C)C)no1", "note": "(stereo not drawn) [Example 100]", "IC50": "1 to 10"},
      {"smiles": "CC(C)(C)c1nnc(C(=O)NCc2ccc(-c3ncnn4cc(N5CCOCC5)cc34)c(F)c2Cl)o1", "note": "[Example 156]", "IC50": "≤ 1"},
      {"smiles": "Cc1cc(-c2ccnn3cccc23)ccc1CNC(=O)c1noc(C(C)(C)C)n1", "note": "[Example 17, 5-(tert-butyl)-N-(2-methyl-4-(pyrrolo[1,2-b]pyridazin-4-yl)benzyl)-1,2,4-oxadiazole-3-carboxamide]", "IC50": "1 to 10"},
      {"smiles": "CC(C)(C)n1cc(C(=O)NCc2ccc(-c3ncnn4cc(N5CCOCC5)cc34)cc2C2CC2)nn1", "note": "[Example 205]", "IC50": "1 to 10"},
      {"smiles": "CC(C)(C)c1nc(C(=O)NCc2ccc(-c3ncnn4cc(N5CCOCC5)cc34)c(F)c2CC(F)F)no1", "note": "[Example 234]", "IC50": "1 to 10"},
      {"smiles": "Cc1cc(-c2cc3c(-c4ccc(CNC(=O)c5nc(C(C)(C)C)no5)c(C)c4)ncnn3c2)cnn1", "note": "[Example 171]", "IC50": "≤ 1"},
      {"smiles": "CC(C)(C)c1noc(C(=O)NCc2cc(F)c(-c3ncnn4cccc34)cc2Cl)n1", "note": "[Example 133]", "IC50": "1 to 10"},
      {"smiles": "COCCN(C)c1cc2c(-c3ccc(CNC(=O)c4noc(C(C)(C)C)n4)c(C)c3)ncnn2c1", "note": "[Example 174]", "IC50": "≤ 1"},
      {"smiles": "Cc1cc(-c2ncnn3cc(-c4cnn(CC(F)F)c4)cc23)ccc1CNC(=O)c1nnn(C(C)(C)C)n1", "note": "[Example 146]", "IC50": "≤ 1"},
      {"smiles": "CC(C)(C)c1nc(C(=O)NCc2cc(F)c(-c3ncnn4cccc34)cc2Cl)co1", "note": "[Example 134]", "IC50": "> 10"},
      {"smiles": "Cn1cc(-c2cc3c(-c4ccc(CNC(=O)c5noc(C(C)(C)C)n5)c(C(F)F)c4)ncnn3c2)cn1", "note": "[Example 219]", "IC50": "≤ 1"},
      {"smiles": "Cc1cc(-c2ncnn3cc(-c4ccc(F)cc4)cc23)ccc1CNC(=O)c1noc(C(C)(C)C)n1", "note": "[Example 224]", "IC50": "≤ 1"},
      {"smiles": "Cc1cc(-c2ncnn3ccc(C)c23)ccc1CNC(=O)c1noc(C(C)(C)C)n1", "note": "[Example 49]", "IC50": "1 to 10"},
      {"smiles": "Cc1cc(-c2ncnn3cc(N4C[C@@H](C)O[C@H](C)C4)cc23)ccc1CNC(=O)c1noc(C(C)(C)C)n1", "note": "(single isomer, unassigned) [Example 43]", "IC50": "≤ 1"},
      {"smiles": "Cc1c(CNC(=O)c2nc(C(C)(C)C)no2)ccc(-c2ccnc3cc(-c4cnn(C)c4)nn23)c1F", "note": "[Example 83]", "IC50": "≤ 1"},
      {"smiles": "CC(C)(C)c1nnc(C(=O)NCc2ccc(-c3ncnn4cc(N5CCOCC5)cc34)cc2C(F)F)o1", "note": "[Example 193]", "IC50": "1 to 10"},
      {"smiles": "C=CC(=O)n1cc(-c2cc3c(-c4ccc(CNC(=O)c5noc(C(C)(C)C)n5)c(C)c4)ncnn3c2)cn1", "note": "[Example 59, N-(4-(6-(1-acryloyl-1H-pyrazol-4-yl)pyrrolo[2,1-f][1,2,4]triazin-4-yl)-2-methylbenzyl)-5-(tert-butyl)-1,2,4-oxadiazole-3-carboxamide]", "IC50": "≤ 1"},
      {"smiles": "CC(C)(C)c1nc(C(=O)NCc2ccc(-c3ncnn4cc(N5CCOCC5)cc34)cc2CC(F)F)no1", "note": "[Example 232]", "IC50": "≤ 1"},
      {"smiles": "Cc1cc(-c2ncnn3cc(-c4cnn(C)c4)cc23)ccc1CNC(=O)c1nnc(C(C)(C)C(F)F)o1", "note": "[Example 3, 5-(1,1-difluoro-2-methylpropan-2-yl)-N-(2-methyl-4-(6-(1-methyl-1H-pyrazol-4-yl)pyrrolo[2,1-f][1,2,4]triazin-4-yl)benzyl)-1,3,4-oxadiazole-2-carboxamide]", "IC50": "≤ 1"},
      {"smiles": "Cc1cc(-c2ncnn3cc(N4CCO[C@@H](C)C4)cc23)ccc1CNC(=O)c1noc(C(C)(C)C)n1", "note": "(single isomer, unassigned) [Example 29]", "IC50": "≤ 1"},
      {"smiles": "Cc1cc(-c2ccnc3cc(N4CCOCC4)nn23)ccc1CNC(=O)c1noc(C(C)(C)C)n1", "note": "[Example 22, 5-(tert-butyl)-N-(2-methyl-4-(2-morpholinopyrazolo[1,5-a]pyrimidin-7-yl)benzyl)-1,2,4-oxadiazole-3-carboxamide]", "IC50": "1 to 10"},
      {"smiles": "Cc1cc(-c2ncnn3cc(N4CCO[C@H](C)C4)cc23)ccc1CNC(=O)c1nnn(C(C)(C)C)n1", "note": "(single isomer, unassigned) [Example 139]", "IC50": "≤ 1"},
      {"smiles": "CC(C)(C)c1cc(C(=O)NCc2cc(F)c(-c3ncnn4cccc34)cc2Cl)no1", "note": "[Example 135]", "IC50": "> 10"},
      {"smiles": "CC(C)(C)c1nnc(C(=O)NCc2ccc(-c3ncnn4cc(N5CCOCC5)cc34)cc2Cl)o1", "note": "[Example 161]", "IC50": "1 to 10"},
      {"smiles": "CC=CC(=O)n1cc(-c2cc3c(-c4ccc(CNC(=O)c5noc(C(C)(C)C)n5)c(C)c4)ncnn3c2)cn1", "note": "[Example 147]", "IC50": "≤ 1"},
      {"smiles": "COc1c(CNC(=O)c2noc(C(C)(C)C)n2)ccc(-c2ncnn3cccc23)c1F", "note": "[Example 180]", "IC50": "1 to 10"},
      {"smiles": "Cc1c(CNC(=O)c2nc(C(C)(C)C)no2)ccc(-c2ncnn3cc(N4CCN(C)[C@H](C)C4)cc23)c1F", "note": "(single isomer, unassigned) [Example 25]", "IC50": "≤ 1"},
      {"smiles": "Cc1cc(-c2ncnn3cccc23)ccc1CNC(=O)c1noc(C(C)(C)C)n1", "note": "[Example 151]", "IC50": "1 to 10"}
    ]}
  ]
}
